In paper PMC7677715 (Redox Biology, 2020):

Columns and labels:
[1] = target: T1, γ-TTP (α-tocopherol transfer protein A156L) (Homo sapiens, UniProt P49638, A156L); assay: X-ray crystal structure; type: binding
T1 sequence (P49638 48-278 A156L): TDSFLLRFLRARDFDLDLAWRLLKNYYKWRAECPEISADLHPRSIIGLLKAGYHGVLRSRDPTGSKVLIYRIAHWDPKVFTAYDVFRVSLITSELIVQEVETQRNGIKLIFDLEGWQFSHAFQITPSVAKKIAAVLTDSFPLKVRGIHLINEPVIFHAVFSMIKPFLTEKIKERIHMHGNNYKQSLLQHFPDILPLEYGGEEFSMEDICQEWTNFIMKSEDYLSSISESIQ

[2] = target: T2, α-tocopherol transfer protein (α-TTP) (Homo sapiens, UniProt P49638); assay: FRET ligand transfer to/from liposomes; type: binding
T2 sequence (P49638 1-278): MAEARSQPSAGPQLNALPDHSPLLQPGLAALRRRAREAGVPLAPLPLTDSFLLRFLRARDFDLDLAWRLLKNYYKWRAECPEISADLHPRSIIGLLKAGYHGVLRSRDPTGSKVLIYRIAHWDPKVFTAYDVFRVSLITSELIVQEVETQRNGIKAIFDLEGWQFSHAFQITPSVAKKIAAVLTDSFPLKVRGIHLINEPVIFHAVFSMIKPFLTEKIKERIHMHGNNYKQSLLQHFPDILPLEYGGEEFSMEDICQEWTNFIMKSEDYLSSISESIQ

| SMILES | Kd [1] [nM] | Kp [2] |
| --- | --- | --- |
| Cc1c(O)cc2c(c1C)O[C@](C)(CCC[C@H](C)CCC[C@H](C)CCCC(C)C)CC2 [RRR-γ-tocopherol] | 53.8 |  |
| Cc1c(O)cc2c(c1C)O[C@](C)(CCC[C@H](C)CCC[C@H](C)CCCC(C)C)CC2 [γ-tocopherol] |  | 4.05 |
